Assay results taken from ChEMBL document CHEMBL1250531, “Comparative nuclease and anti-cancer properties of the naturally occurring malabaricones” (Bioorg Med Chem, 2010).
One block for each compound: values may come before it. Calls of active or inactive are those of the source. The rule behind the calls is not given here.

What was measured:
[1] = tested on: MCF7; assay: Cytotoxicity against human MCF7 cells at 100 uM after 72 hrs by MTT assay; assay type: functional, cell-based
[2] = tested on: Nucleic Acid; assay: Induction of Escherichia coli pBR322 DNA cleavage assessed as open circular form of DNA at 25 uM after 45 mins by agarose gel electrophoresis in presence of copper; assay type: nucleic-acid assay
[3] = tested on: MCF7; assay: Cytotoxicity against human MCF7 cells after 72 hrs by MTT assay; assay type: functional, cell-based; details: for IC50: MCF7, 72 h
[4] = tested on: Nucleic Acid; assay: Induction of Escherichia coli pBR322 DNA cleavage assessed as linear form of DNA at 25 uM after 45 mins by agarose gel electrophoresis in presence of copper; assay type: nucleic-acid assay
[5] = tested on: MCF7; assay: Cytotoxicity against human MCF7 cells at 50 uM after 72 hrs by MTT assay relative to control; assay type: functional
[6] = tested on: Nucleic Acid; assay: Induction of Escherichia coli pBR322 DNA cleavage at 25 uM after 45 mins under anoxic condition by agarose gel electrophoresis in presence of copper; assay type: nucleic-acid assay
[7] = tested on: MCF7; assay: Ratio of compound IC50 to curcumin IC50 for human MCF7 cells; assay type: functional
[8] = tested on: Nucleic Acid; assay: Induction of Escherichia coli pBR322 DNA cleavage at 25 uM after 45 mins by agarose gel electrophoresis in presence of <100 uM of copper; assay type: nucleic-acid assay
[9] = tested on: Nucleic Acid; assay: Induction of Escherichia coli pBR322 DNA cleavage at 25 uM after 45 mins by agarose gel electrophoresis in presence of 100 uM of copper and 250 uM of neocuproine; assay type: nucleic-acid assay
[10] = tested on: Nucleic Acid; assay: Induction of Escherichia coli pBR322 DNA cleavage assessed as open circular form of DNA at 25 uM after 30 mins by agarose gel electrophoresis in presence of 100 uM of copper; assay type: nucleic-acid assay
[11] = tested on: Nucleic Acid; assay: Induction of Escherichia coli pBR322 DNA cleavage at 25 uM after 45 mins by agarose gel electrophoresis in presence of 100 uM of copper and 100 mM of DMSO; assay type: nucleic-acid assay
[12] = tested on: Nucleic Acid; assay: Induction of Escherichia coli pBR322 DNA cleavage at 25 uM after 45 mins by agarose gel electrophoresis in presence of 100 uM of copper and 100 mM of sodium azide; assay type: nucleic-acid assay
[13] = tested on: Nucleic Acid; assay: Induction of Escherichia coli pBR322 DNA cleavage at 25 uM after 45 mins by agarose gel electrophoresis in presence of 100 uM of copper and 250 U/ml of superoxide dismutase; assay type: nucleic-acid assay
[14] = tested on: Nucleic Acid; assay: Induction of Escherichia coli pBR322 DNA cleavage at 25 uM after 45 mins by agarose gel electrophoresis in presence of 100 uM of copper and 250 uM of EDTA; assay type: nucleic-acid assay
[15] = tested on: Nucleic Acid; assay: Induction of Escherichia coli pBR322 DNA cleavage at 5 to 10 uM uM after 45 mins by agarose gel electrophoresis in presence of 100 uM of copper; assay type: nucleic-acid assay
[16] = tested on: Calf thymus DNA; assay: Binding affinity to calf thymus DNA assessed as increase of viscosity of DNA solution at 0.2 mM after 30 mins; assay type: nucleic-acid assay; details: Bos taurus
[17] = tested on: MCF7; assay: Induction of ROS production in human MCF7 cells at 1 mM after 3 hrs by DCFDA assay relative to control; assay type: functional
[18] = tested on: MCF7; assay: Induction of ROS production in human MCF7 cells after 3 hrs by DCFDA assay; assay type: functional, cell-based
[19] = Induction of superoxide radical production at 100 uM after 20 mins by NBT reduction assay relative to control in presence of 100 uM of copper; assay type: physicochemical
[20] = tested on: Nucleic Acid; assay: Induction of Escherichia coli pBR322 DNA cleavage at 25 uM after 45 mins by agarose gel electrophoresis in presence of 100 uM of copper and 500 mM of mannitol; assay type: nucleic-acid assay
[21] = tested on: MCF7; assay: Cytotoxicity against human MCF7 cells assessed as cell viability at 5 uM after 72 hrs by MTT assay pretreated with 1 mM of NAC relative to control; assay type: functional
[22] = tested on: Nucleic Acid; assay: Induction of Escherichia coli pBR322 DNA cleavage assessed as supercoiled form of DNA at 25 uM after 45 mins by agarose gel electrophoresis in presence of 100 uM of copper and catalase; assay type: nucleic-acid assay
[23] = Induction of hydrogen peroxide production at 100 uM after 20 mins by horse radish peroxidase assay relative to control in presence of 100 uM of copper; assay type: physicochemical
[24] = tested on: Nucleic Acid; assay: Induction of Escherichia coli pBR322 DNA cleavage at 25 uM after 45 mins by agarose gel electrophoresis; assay type: nucleic-acid assay
[25] = tested on: MCF7; assay: Cytotoxicity against human MCF7 cells assessed as cell viability at 5 uM after 72 hrs by MTT assay; assay type: functional; details: MCF7, 72 h, read-out: Activity
[26] = tested on: MCF7; assay: Induction of ROS production in human MCF7 cells at 10 uM after 3 hrs by DCFDA assay relative to control; assay type: functional
[27] = tested on: Calf thymus DNA; assay: Binding affinity to calf thymus DNA assessed as increase of ethidium bromide fluorescence quenching at 0.2 mM after 30 mins; assay type: nucleic-acid assay; details: Bos taurus
[28] = tested on: MCF7; assay: Induction of ROS production in human MCF7 cells at 15 uM after 3 hrs by DCFDA assay relative to control; assay type: functional
[29] = tested on: Nucleic Acid; assay: Induction of Escherichia coli pBR322 DNA cleavage at 25 uM after 45 mins by agarose gel electrophoresis in presence of 100 uM of copper and 100 mM of mannitol; assay type: nucleic-acid assay
[30] = tested on: Calf thymus DNA; assay: Binding affinity to calf thymus DNA at 50 uM after 5 mins by absorption spectroscopic analysis; assay type: nucleic-acid assay; details: Bos taurus
[31] = Induction of copper chelation assessed as compound copper complex formation at 25 uM by absorption spectroscopic analysis; assay type: physicochemical
[32] = tested on: Nucleic Acid; assay: Induction of Escherichia coli pBR322 DNA cleavage assessed as supercoiled form of DNA at 25 uM after 45 mins by agarose gel electrophoresis in presence of 100 uM of copper; assay type: nucleic-acid assay
[33] = tested on: Nucleic Acid; assay: Induction of Escherichia coli pBR322 DNA cleavage at 25 uM after 45 mins by agarose gel electrophoresis in presence of 100 uM of copper and 500 U/ml of superoxide dismutase; assay type: nucleic-acid assay
[34] = tested on: Nucleic Acid; assay: Induction of Escherichia coli pBR322 DNA cleavage assessed as supercoiled form of DNA at 25 uM after 45 mins by agarose gel electrophoresis in presence of 100 uM of copper and EDTA; assay type: nucleic-acid assay
[35] = tested on: Nucleic Acid; assay: Induction of Escherichia coli pBR322 DNA cleavage at 25 uM after 45 mins by agarose gel electrophoresis in presence of 100 uM of copper and 500 U/ml of catalase; assay type: nucleic-acid assay
[36] = tested on: MCF7; assay: Induction of morphological changes in human MCF7 cells at 2.5 to 40 uM after 24 hrs by phase contrast microscopic analysis; assay type: functional, cell-based
[37] = tested on: Nucleic Acid; assay: Induction of Escherichia coli pBR322 DNA cleavage assessed as supercoiled form of DNA at 25 uM after 45 mins by agarose gel electrophoresis in presence of 100 uM of copper and neocuproine; assay type: nucleic-acid assay
[38] = tested on: Nucleic Acid; assay: Induction of Escherichia coli pBR322 DNA cleavage assessed as supercoiled form of DNA at 25 uM after 45 mins by agarose gel electrophoresis in presence of 100 uM of copper and sodium azide; assay type: nucleic-acid assay
[39] = tested on: MCF7; assay: Induction of apoptosis in human MCF7 cells assessed as DNA ladder formation after 24 hrs using ethidium bromide staining by agarose gel electrophoresis; assay type: functional, cell-based

Structure (SMILES): C=CCc1ccc(O)c(O)c1
Activity [1]: inactive

Structure (SMILES): COc1cc(/C=C/C(=O)CC(=O)/C=C/c2ccc(O)c(OC)c2)ccc1O [CURCUMIN]
IC50 [3]: 24.5 µM
fold change (FC) [7]: 4

Structure (SMILES): O=C(CCCCCCCCc1ccc2c(c1)OCO2)c1c(O)cccc1O
Activity [2]: Active
IC50 [3]: 15.7 µM
Activity [4]: inactive
Activity [6]: inactive

Further lines, with some results ahead:

Activity [2]: inactive
Activity [4]: Active
Activity [6]: inactive
Structure (SMILES): O=C(CCCCCCCCc1ccccc1)c1c(O)cccc1O [MALABARICONE A]
Activity [3]: Dose-dependent effect
Activity [5]: 12%

Activity [8]: inactive
Activity [2]: Active
Activity [9]: inactive
Activity [10]: Active
Activity [11]: Active
Activity [12]: inactive
Activity [13]: Active
Activity [14]: inactive
Activity [15]: Active
Activity [16]: Active
Activity [19]: 42%
Activity [4]: Active
Activity [20]: Active
Activity [22]: 82%
Activity [23]: 85%
Activity [24]: inactive
Activity [27]: 24.4%
Activity [29]: Active
Activity [30]: Active
Activity [31]: Active
Activity [32]: inactive
Activity [33]: Active
Activity [34]: 76.2%
Activity [35]: inactive
Activity [37]: 98.5%
Activity [38]: 93.1%
Structure (SMILES): O=C(CCCCCCCCc1ccc(O)c(O)c1)c1c(O)cccc1O [MALABARICONE C]
IC50 [3]: 5.26 µM
Activity [17]: 71%
Activity [18]: Dose-dependent effect
Activity [21]: 75.32%
viability at 5 µM [25]: 45.3%
Activity [26]: 26%
Activity [28]: 50%
Activity [36]: Active
Activity [39]: Dose-dependent effect

Activity [2]: Active
Structure (SMILES): O=C(CCCCCCCCc1ccc(O)cc1)c1c(O)cccc1O
